According to article PMC10768847 (Journal of medicinal chemistry, 2023):
Read-outs that look alike come from different tables or passages of the source. Where a SMILES comes first, the peptide text is derived from it. [ ]: non-standard residue; d: D form. The star is where a group is joined. Orn(α-tetramethylguanidino) = CN(C)C(=N[C@@H](CCCN)C(=O)*)N(C)C; Arg(Me) = CNC(=N)NCCC[C@H](N)C(=O)O; dLeu(ol) = CC(C)C[C@@H](N)CO; NHIsopentyl = CC(C)CCN*

Columns and labels:
E. coli BL21 RF2(R262C) = experiment: Minimum inhibitory concentration against release factor mutant strain; format: cell-based, Escherichia coli; conditions: Table 5; release factor mutant resistant to Api-137
E. coli BL21 = format: cell-based, Escherichia coli; conditions: for MIC: microbroth dilution, 96-well plates, E. coli BL21 OD600 = 0.002 in 0.3 Tryptic Soy Broth, overnight at 37 °C, visible cell density, run in duplicate; for Fold change: MIC compared to that of Api-137

In the case of `CC[C@H](C)[C@H](NC(=O)[C@H](Cc1ccc(O)cc1)NC(=O)[C@@H](NC(=O)[C@@H]1CCCN1C(=O)[C@H](CCCNC(=N)N)NC(=O)[C@H](CC(N)=O)NC(=O)[C@H](CC(N)=O)NC(=O)[C@H](CCCN)N=C(N(C)C)N(C)C)C(C)C)C(=O)N1CCC[C@H]1C(=O)N[C@@H](CCCNC(=N)N)C(=O)N1CCC[C@H]1C(=O)N[C@@H](CCCNC(=N)N)C(=O)N1CCC[C@H]1C(=O)N1CCC[C@H]1C(=O)N[C@@H](Cc1c[nH]cn1)C(=O)N1CCC[C@H]1C(=O)N[C@@H](CCCNC(=N)NC)C(=O)N[C@@H](CC(C)C)C(=O)O` [Compound 3] ({Orn(α-tetramethylguanidino)}-NNRPVYIPRPRPPHP[Arg(Me)]L-OH), the “minimum inhibitory concentration, BL21 RF2(R262C)” value (E. coli BL21 RF2(R262C)) is reported as over 25.
`CC[C@H](C)[C@H](NC(=O)[C@H](Cc1ccc(O)cc1)NC(=O)[C@@H](NC(=O)[C@@H]1CCCN1C(=O)[C@H](CCCNC(=N)N)NC(=O)[C@H](CC(N)=O)NC(=O)[C@H](CC(N)=O)NC(=O)[C@H](CCCN)N=C(N(C)C)N(C)C)C(C)C)C(=O)N1CCC[C@H]1C(=O)N[C@@H](CCCNC(=N)N)C(=O)N1CCC[C@H]1C(=O)N[C@@H](CCCNC(=N)N)C(=O)N1CCC[C@H]1C(=O)N1CCC[C@H]1C(=O)N[C@@H](Cc1c[nH]cn1)C(=O)N1CCC[C@H]1C(=O)N[C@@H](CCCNC(=N)N)C(=O)NCCC(C)C` [Compound 4] ({Orn(α-tetramethylguanidino)}-NNRPVYIPRPRPPHPR-NHIsopentyl) was tested, and the MIC (E. coli BL21; Table 1) was over 40 µM.
In the case of `CC[C@H](C)[C@H](NC(=O)[C@H](Cc1ccc(O)cc1)NC(=O)[C@@H](NC(=O)[C@@H]1CCCN1C(=O)[C@H](CCCNC(=N)N)NC(=O)[C@H](CC(N)=O)NC(=O)[C@H](CC(N)=O)NC(=O)[C@H](CCCN)N=C(N(C)C)N(C)C)C(C)C)C(=O)N1CCC[C@H]1C(=O)N[C@@H](CCCNC(=N)N)C(=O)N1CCC[C@H]1C(=O)N[C@@H](CCCNC(=N)N)C(=O)N1CCC[C@H]1C(=O)N1CCC[C@H]1C(=O)N[C@@H](Cc1c[nH]cn1)C(=O)N1CCC[C@H]1C(=O)N[C@@H](CCCNC(=N)N)C(=O)N[C@@H](CO)CC(C)C` [Compound 6] ({Orn(α-tetramethylguanidino)}-NNRPVYIPRPRPPHPR[dLeu(ol)]), the Fold change (E. coli BL21; Table 1) is reported as 62–128.
In the case of `CC[C@H](C)[C@H](NC(=O)[C@H](Cc1ccc(O)cc1)NC(=O)[C@@H](NC(=O)[C@@H]1CCCN1C(=O)[C@H](CCCNC(=N)N)NC(=O)[C@H](CC(N)=O)NC(=O)[C@H](CC(N)=O)NC(=O)[C@H](CCCN)N=C(N(C)C)N(C)C)C(C)C)C(=O)N1CCC[C@H]1C(=O)N[C@@H](CCCNC(=N)N)C(=O)N1CCC[C@H]1C(=O)N[C@@H](CCCNC(=N)N)C(=O)N1CCC[C@H]1C(=O)N1CCC[C@H]1C(=O)N[C@@H](Cc1c[nH]c2ccccc12)C(=O)N1CCC[C@H]1C(=O)N[C@@H](CCCNC(=N)N)C(=O)N[C@@H](CC(C)C)C(=O)O` [Compound 14] ({Orn(α-tetramethylguanidino)}-NNRPVYIPRPRPPWPRL-OH), the Fold change (E. coli BL21; Table 2) is reported as 8–16 and the MIC (E. coli BL21; Table 2) is reported as 1.2 to 2.5 µM.
gu-ONNRPVYIPRPRPPHPRL-OH [Compound 15] gave a Fold change (E. coli BL21; Table 3) of 4 and an MIC (E. coli BL21; Table 3) of 0.62 µM.
gu-ONNRPVYIPRPRPPHPRL-OH [Compound 18] showed a Fold change (E. coli BL21; Table 3) of 4 and an MIC (E. coli BL21; Table 3) of 0.62 µM.
gu-ONNRPVYIPRPRPPHPRL-OH [Compound 21] was tested, and the Fold change (E. coli BL21; Table 3) was 2–4.
With gu-ONNRPVYIPRPRPPHPRL-OH [Compound 22] the Fold change (E. coli BL21; Table 3) was 2–4.
Work on gu-ONNRPVYIPRPRPPHPRL-OH [Compound 23] yielded a Fold change (E. coli BL21; Table 3) of 2 and an MIC (E. coli BL21; Table 3) of 0.16 to 0.3 µM.
In the case of gu-ONNRPVYIPRPRPPHPRL-OH [Compound 25], the MIC (E. coli BL21; Table 3) is reported as 0.08 to 0.16 µM.
gu-ONNRPVYIPRPRPPHPRL-OH [Compound 26] gave a Fold change (E. coli BL21; Table 3) of 1 and an MIC (E. coli BL21; Table 3) of 0.08 to 0.16 µM.
